Results reported in ChEMBL document CHEMBL1201862, “PubChem BioAssay data set” (2004).
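These data come from cells grown in 96-well plates and exposed to compound for 48 hours at five concentrations. GI50 = concentration required for 50% inhibition of growth.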 Activity calls are given as the source filed them. No stated cut-off is given here; in the data, active = GI50 up to about 1.1 µM and inactive = higher.

Key:
Assay in all cases: NCI-60 cell line screen, 48 h
[1] = system: LOX IMVI
[2] = system: OVCAR-4
[3] = system: OVCAR-8
[4] = system: MDA-N
[5] = system: CAKI-1
[6] = system: NCI-H460
[7] = system: MDA-MB-435
[8] = system: RPMI-8226
[9] = system: SF-268
[10] = system: CCRF-CEM
[11] = system: PC-3
[12] = system: NCI-H23
[13] = system: HL-60
[14] = system: UACC-62
[15] = system: MDA-MB-231
[16] = system: SK-MEL-5
[17] = system: MOLT-4
[18] = system: SK-MEL-28
[19] = system: Malme-3M
[20] = system: ACHN
[21] = system: UACC-257
[22] = system: HCT-116
[23] = system: A549
[24] = system: COLO 205
[25] = system: DU-145
[26] = system: NCI-H226
[27] = system: SNB-19
[28] = system: RXF 393
[29] = system: OVCAR-3
[30] = system: HCC 2998
[31] = system: MCF7
[32] = system: NCI/ADR-RES
[33] = system: HCT-15
[34] = system: SF-539
[35] = system: SK-MEL-2
[36] = system: U-251
[37] = system: K562
[38] = system: HOP-62
[39] = system: HT-29
[40] = system: SR
[41] = system: HOP-92
[42] = system: NCI-H522
[43] = system: SF-295
[44] = system: SNB-75
[45] = system: SW-620
[46] = system: OVCAR-5
[47] = system: TK-10
[48] = system: EKVX
[49] = system: T47D
[50] = system: 786-0
[51] = system: IGROV-1
[52] = system: M14
[53] = system: SN12C
[54] = system: BT-549
[55] = system: A498
[56] = system: Hs-578T
[57] = system: SK-OV-3
[58] = system: UO-31
[59] = system: KM12

O=c1oc2ccc(Cl)cc2c2ccccc12
GI50 [1]: > 100 µM (inactive) | GI50 [2]: > 100 µM (inactive) | GI50 [3]: 65 µM (inactive) | GI50 [4]: > 100 µM (inactive) | GI50 [5]: 43 µM (inactive) | GI50 [6]: > 100 µM (inactive) | GI50 [7]: > 100 µM (inactive) | GI50 [8]: > 100 µM (inactive) | GI50 [9]: 20.7 µM (inactive) | GI50 [10]: > 100 µM (inactive) | GI50 [11]: > 100 µM (inactive) | GI50 [12]: 23.8 µM (inactive) | GI50 [13]: > 100 µM (inactive) | GI50 [14]: 71.6 µM (inactive) | GI50 [15]: 17.4 µM (inactive) | GI50 [16]: 67.6 µM (inactive) | GI50 [17]: > 100 µM (inactive) | GI50 [18]: > 100 µM (inactive) | GI50 [19]: > 100 µM (inactive) | GI50 [20]: > 100 µM (inactive) | GI50 [21]: > 100 µM (inactive) | GI50 [22]: 76.2 µM (inactive) | GI50 [23]: 63.4 µM (inactive) | GI50 [24]: 65.8 µM (inactive) | GI50 [25]: > 100 µM (inactive) | GI50 [26]: 27.5 µM (inactive) | GI50 [27]: 20 µM (inactive) | GI50 [28]: 22.1 µM (inactive) | GI50 [29]: > 100 µM (inactive) | GI50 [30]: > 100 µM (inactive) | GI50 [31]: 53.2 µM (inactive) | GI50 [32]: 84.1 µM (inactive) | GI50 [33]: > 100 µM | GI50 [34]: > 100 µM (inactive) | GI50 [35]: 18.6 µM (inactive) | GI50 [36]: 15.1 µM (inactive) | GI50 [37]: > 100 µM (inactive) | GI50 [38]: 18.8 µM (inactive) | GI50 [39]: > 100 µM (inactive) | GI50 [40]: > 100 µM (inactive) | GI50 [41]: 23.2 µM (inactive) | GI50 [42]: 48.5 µM (inactive) | GI50 [43]: 34.4 µM (inactive) | GI50 [44]: 39.2 µM (inactive) | GI50 [45]: > 100 µM (inactive) | GI50 [46]: 78.3 µM (inactive) | GI50 [47]: 51.6 µM (inactive) | GI50 [48]: 10.8 µM (inactive) | GI50 [49]: > 100 µM (inactive) | GI50 [50]: 40.1 µM (inactive) | GI50 [51]: 71.8 µM (inactive) | GI50 [52]: > 100 µM (inactive) | GI50 [53]: > 100 µM (inactive) | GI50 [54]: 13.4 µM (inactive) | GI50 [55]: 75.7 µM (inactive) | GI50 [56]: 18.3 µM (inactive)

CO/N=C1\CC(NC(=O)C(F)(F)F)c2ccsc21 (configuration not stated)
GI50 [1]: > 100 µM (inactive) | GI50 [2]: > 100 µM (inactive) | GI50 [3]: > 100 µM (inactive) | GI50 [4]: > 100 µM (inactive) | GI50 [5]: > 100 µM (inactive) | GI50 [6]: > 100 µM (inactive) | GI50 [7]: > 100 µM (inactive) | GI50 [9]: > 100 µM (inactive) | GI50 [10]: > 100 µM (inactive) | GI50 [11]: > 100 µM (inactive) | GI50 [12]: > 100 µM (inactive) | GI50 [13]: > 100 µM (inactive) | GI50 [14]: > 100 µM (inactive) | GI50 [15]: > 100 µM (inactive) | GI50 [16]: > 100 µM (inactive) | GI50 [17]: > 100 µM (inactive) | GI50 [18]: > 100 µM (inactive) | GI50 [19]: > 100 µM (inactive) | GI50 [21]: > 100 µM (inactive) | GI50 [22]: > 100 µM (inactive) | GI50 [23]: > 100 µM (inactive) | GI50 [24]: > 100 µM (inactive) | GI50 [57]: > 100 µM (inactive) | GI50 [25]: > 100 µM (inactive) | GI50 [26]: > 100 µM (inactive) | GI50 [28]: > 100 µM (inactive) | GI50 [29]: > 100 µM (inactive) | GI50 [30]: > 100 µM (inactive) | GI50 [31]: > 100 µM (inactive) | GI50 [32]: > 100 µM (inactive) | GI50 [33]: > 100 µM | GI50 [34]: > 100 µM (inactive) | GI50 [35]: > 100 µM (inactive) | GI50 [36]: > 100 µM (inactive) | GI50 [37]: > 100 µM (inactive) | GI50 [38]: > 100 µM (inactive) | GI50 [39]: > 100 µM (inactive) | GI50 [40]: > 100 µM (inactive) | GI50 [41]: > 100 µM (inactive) | GI50 [43]: > 100 µM (inactive) | GI50 [58]: > 100 µM (inactive) | GI50 [44]: > 100 µM (inactive) | GI50 [45]: > 100 µM (inactive) | GI50 [46]: > 100 µM (inactive) | GI50 [47]: > 100 µM (inactive) | GI50 [48]: > 100 µM (inactive) | GI50 [49]: > 100 µM (inactive) | GI50 [51]: > 100 µM (inactive) | GI50 [52]: > 100 µM (inactive) | GI50 [53]: > 100 µM (inactive) | GI50 [54]: > 100 µM (inactive) | GI50 [55]: > 100 µM (inactive) | GI50 [56]: > 100 µM (inactive)

C=CCC(CCC(C)=O)(C(=O)OCC)C(=O)OCC
GI50 [59]: > 100 µM (inactive) | GI50 [2]: > 100 µM (inactive) | GI50 [3]: > 100 µM (inactive) | GI50 [4]: > 100 µM (inactive) | GI50 [5]: > 100 µM (inactive) | GI50 [6]: > 100 µM (inactive) | GI50 [7]: > 100 µM (inactive) | GI50 [8]: > 100 µM (inactive) | GI50 [9]: > 100 µM (inactive) | GI50 [10]: > 100 µM (inactive) | GI50 [11]: > 100 µM (inactive) | GI50 [12]: > 100 µM (inactive) | GI50 [13]: > 100 µM (inactive) | GI50 [14]: > 100 µM (inactive) | GI50 [15]: > 100 µM (inactive) | GI50 [16]: > 100 µM (inactive) | GI50 [17]: > 100 µM (inactive) | GI50 [18]: > 100 µM (inactive) | GI50 [19]: > 100 µM (inactive) | GI50 [20]: > 100 µM (inactive) | GI50 [21]: > 100 µM (inactive) | GI50 [22]: > 100 µM (inactive) | GI50 [23]: > 100 µM (inactive) | GI50 [24]: > 100 µM (inactive) | GI50 [57]: > 100 µM (inactive) | GI50 [25]: > 100 µM (inactive) | GI50 [26]: > 100 µM (inactive) | GI50 [27]: > 100 µM (inactive) | GI50 [28]: > 100 µM (inactive) | GI50 [29]: > 100 µM (inactive) | GI50 [30]: > 100 µM (inactive) | GI50 [31]: > 100 µM (inactive) | GI50 [32]: > 100 µM (inactive) | GI50 [33]: > 100 µM | GI50 [34]: > 100 µM (inactive) | GI50 [35]: > 100 µM (inactive) | GI50 [36]: > 100 µM (inactive) | GI50 [37]: > 100 µM (inactive) | GI50 [38]: > 100 µM (inactive) | GI50 [39]: > 100 µM (inactive) | GI50 [40]: > 100 µM (inactive) | GI50 [41]: > 100 µM (inactive) | GI50 [42]: > 100 µM (inactive) | GI50 [43]: > 100 µM (inactive) | GI50 [58]: > 100 µM (inactive) | GI50 [44]: > 100 µM (inactive) | GI50 [45]: > 100 µM (inactive) | GI50 [46]: > 100 µM (inactive) | GI50 [47]: > 100 µM (inactive) | GI50 [48]: > 100 µM (inactive) | GI50 [49]: > 100 µM (inactive) | GI50 [50]: > 100 µM (inactive) | GI50 [51]: > 100 µM (inactive) | GI50 [52]: > 100 µM (inactive) | GI50 [53]: > 100 µM (inactive) | GI50 [54]: > 100 µM (inactive) | GI50 [55]: > 100 µM (inactive) | GI50 [56]: > 100 µM (inactive)
